Laboratory results taken from patent publication US20030232820A1, “Method for synthesizing oxazinones” (priority 2001, published 2003).

Columns and labels:
Micrococcus luteus = assay: Agar plate filter disc test for antibacterial activity; settings: for Zone size: agar plate seeded with Micrococcus luteus, 12 hours at 30° C.; for antibacterial activity against Micrococcus luteus: agar plates, in words
[1] = test system: glutamate-aspartate transaminase; settings: in words, prior art; cited from earlier work
tuberculosis bacilli = settings: in words, prior art; cited from earlier work

Question: With `NC1CCONC1=O` (racemic) [DL-cyclocanaline, 4-amino-tetrahydro-1,2-oxazin-3-one] as the compound, how does the Zone size (Micrococcus luteus; Weight 400 micrograms on disc) read?
Answer: 48 mm

Question: What about the Zone size (Micrococcus luteus; Weight 600 micrograms on disc) of the same compound?
Answer: 58 mm

Question: And the “antibacterial activity against Micrococcus luteus” value (Micrococcus luteus)?
Answer: exhibited activity

Question: What about the “inhibition of glutamate-aspartate transaminase” value [1] of the same compound?
Answer: known to inhibit

Question: And the “activity against tuberculosis bacilli” value (tuberculosis bacilli)?
Answer: exhibits activity

Question: What does the source list for `C[C@H](C(=O)O)N1OCCCC1=O` [Compound R, 2R-(3-Oxo-[1,2]Oxazinan-2-yl)-Propionic Acid]?
Answer: Zone size (Micrococcus luteus; Weight 400 micrograms on disc): 23 mm; antibacterial activity against Micrococcus luteus (Micrococcus luteus): exhibited activity

Question: With `CC(C(=O)O)N1OCCC(NC(=O)Cc2ccccc2)C1=O` (stereo not drawn) [UA, 2-(α-Carboxylethyl)-4-phenylacetylamino-1,2-oxazinan-3-one] as the compound, how does the melting point read?
Answer: 189 to 190 °C

Question: For `CC1=C(C(=O)O)N2C(=O)[C@@H](NC(=O)Cc3ccccc3)[C@H]2SC1` [desacetoxycephalosporin G], which Zone size (Micrococcus luteus; Weight 10 micrograms on disc) is on record?
Answer: 39 mm
